Drawing on the supplement of paper PMC7600603, this text covers drug sensitivity score, EC50 viability and TC50 cytotoxicity for 22 compounds.

Experiment [1] relates to DLD1 NRF2-GOF. Nature of the experiment: drug sensitivity score (DSS) viability (DSS score); higher = more sensitive; extreme values may be limits of the assay. Particulars: 72 h; CellTiter-Glo viability. A digest of the protocol:
(§1)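 EC50 and drug sensitivity score, the latter a normalised area under the curve, were calculated from logistic dose-response fits. The fits had four parameters and used CellTiter-Glo viability data read on a Pherastar FS reader 72 h after treatment, normalised to vehicle wells and 100-μM positive-control wells. Treated cells were isogenic DLD1 colorectal cancer cells, NRF2 wild-type or CRISPR gain-of-function, exposed in 384-well plates to library compounds at 5 concentrations spanning a 10,000-fold range.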
A general note: In ATP-based viability assays light output follows the ATP content of the culture.

Experiment [2] relates to DLD1 NRF2-WT. Described as above. Particulars: 72 h; CellTiter-Glo viability. A digest of the protocol: as §1
The subject of experiment [3] is DLD1 NRF2-GOF. The note with it: 72 h; CellTiter-Glo viability. A digest of the protocol:
as §1

Experiment [4] has as its system DLD1 NRF2-GOF. The experiment can be described thus: drug sensitivity score (DSS) cytotoxicity (DSS score); higher = more toxic; extreme values may be limits of the assay. Particulars: 72 h; CellTox Green cytotoxicity. A digest of the protocol:
(§2)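 Isogenic DLD1 colorectal cancer cells, either NRF2 wild-type or CRISPR gain-of-function, were grown in DMEM with 10% FBS. They were exposed in 384-well plates to library compounds at 5 concentrations spanning a 10,000-fold range. After 72 h, cytotoxicity was read by CellTox Green on a Pherastar FS reader and normalised to vehicle wells and 100-μM positive-control wells. TC50 and drug sensitivity score (a normalised area under the curve) came from logistic dose-response fits.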

In experiment [5] the test system is DLD1 NRF2-WT. The experiment is described as above. Particulars: 72 h; CellTox Green cytotoxicity. A digest of the protocol:
as §2

Experiment [6] has as its system DLD1 NRF2-GOF. The experiment can be described thus: TC50 cytotoxicity; higher = less toxic. Particulars: 72 h; CellTox Green cytotoxicity. A digest of the protocol:
as §2

Experiment [7] relates to DLD1 NRF2-WT. The experiment can be described thus: TC50 cytotoxicity; higher = less toxic. Particulars: 72 h; CellTox Green cytotoxicity. A digest of the protocol:
as §2

Experiment [8] has as its system DLD1 NRF2-WT. Particulars: 72 h; CellTiter-Glo viability. A digest of the protocol:
as §1

As for `CCC(C)(C)C(=O)O[C@H]1C[C@@H](C)C=C2C=C[C@H](C)[C@H](CC[C@@H]3C[C@@H](O)CC(=O)O3)[C@H]21` [Simvastatin], the drug sensitivity score is 3.8 in experiment [1] and 0 in experiment [2]. The EC50 viability in experiment [3] came out at 0.571 µM.

For `O=S(=O)(c1cccc2c(O)nccc12)N1CCCNCC1` [Hydroxyfasudil], the drug sensitivity score in experiment [1] stood at 3.9; in experiment [2], 2.4; in experiment [4] it was 0; in experiment [5], 0. This compound returned an EC50 viability in experiment [3] of 2.83 µM. In addition, the TC50 cytotoxicity in experiment [6] and in experiment [7] was more than 19 µM each time.

Take `C/C=C1\NC(=O)[C@H]2CSSCC/C=C/[C@H](CC(=O)N[C@H](C(C)C)C(=O)N2)OC(=O)[C@H](C(C)C)NC1=O` [Romidepsin]: the drug sensitivity score in experiment [1] came to 23.4; in experiment [4], 2.9; in experiment [5] it was 9.6. In experiment [3], this compound displayed an EC50 viability of 0.006 µM. Further, the TC50 cytotoxicity worked out at 0.121 µM in experiment [6] and 0.105 µM in experiment [7].

With `CC(C)Oc1ccc(C(=O)N[C@H](CNC(=O)CN(C)C)Cc2ccc(-c3cn4cccc([C@H](C)O)c4n3)cc2)cc1Cl`, the figures for the drug sensitivity score in experiment [1], in experiment [4] and in experiment [5] were 10.7, 0 and 0, respectively. In experiment [3], this compound showed an EC50 viability of 0.182 µM. Besides, the TC50 cytotoxicity in experiment [6] and in experiment [7] was more than 10 µM in each case.

Consider `O=C1Cc2cc(C(=O)NC3C[C@H]4CC[C@@H](C3)N4S(=O)(=O)CC3CCN(CCCC(F)(F)F)CC3)c(Cl)cc2N1` (stereo partly specified), for which the drug sensitivity score worked out at 4.1 in experiment [1], 0 in experiment [2], 0 in experiment [4] and 0 in experiment [5]. Besides, the EC50 viability in experiment [8] is more than 10 µM. For the same compound, the TC50 cytotoxicity in experiment [6] and in experiment [7] was more than 10 µM each time.

In the case of `O=C1CCC(N2C(=O)c3ccccc3C2=O)C(=O)N1` (stereo unspecified) [Thalidomide], the drug sensitivity score in experiment [1] stood at 0.7; in experiment [4], 0; in experiment [5], 0. In experiment [3], the EC50 viability is more than 10 µM. Moreover, the TC50 cytotoxicity in experiment [6] and in experiment [7] was more than 10 µM throughout.

On to `Cc1nc2cccc(N)c2c(=O)n1C1CCC(=O)NC1=O` (stereo unspecified) [CC122], for which the drug sensitivity score in experiment [1] came out at 2.7; in experiment [2], 3.2; in experiment [4] it was 0; in experiment [5], 0. For the same compound, the EC50 viability in experiment [8] was more than 10 µM. The TC50 cytotoxicity in experiment [6] and in experiment [7] was more than 10 µM each time.

For `CS(=O)(=O)c1ccc(-c2cnc(N)c(C(=O)Nc3ccccc3)n2)cc1` [VE-821], the drug sensitivity score in experiment [1] was found to be 0.9; in experiment [2], 0.2; in experiment [4], 0; in experiment [5], 0. For the same compound, the EC50 viability in experiment [8] is more than 10 µM. Further, the TC50 cytotoxicity in experiment [6] and in experiment [7] was more than 10 µM throughout.

As for `Cc1c(-c2c(-c3ccc(F)o3)sc3ncnc(O[C@H](Cc4ccccc4OCc4ccnn4CC(F)(F)F)C(=O)O)c23)ccc(OCCN2CCN(C)CC2)c1Cl`, the drug sensitivity score in experiment [1] came out at 0; in experiment [2], 3.6; in experiment [4], 0; in experiment [5], 0. The EC50 viability in experiment [3] is more than 1 µM. The TC50 cytotoxicity in experiment [6] and in experiment [7] was more than 1 µM in each case.

`O=C(c1ccc(OCCN2CCCCC2)cc1)c1c(-c2ccc(O)cc2)sc2cc(O)ccc12` [Raloxifene]: in experiment [1], the drug sensitivity score was found to be 3.2. In experiment [3], this compound yielded an EC50 viability of 2.1 µM.

In the case of `Oc1ncnc2[nH]ncc12` [Allopurinol], the drug sensitivity score in experiment [1], in experiment [4] and in experiment [5] was 0 each time. This compound also returned an EC50 viability in experiment [3] of more than 10 µM. Moreover, the TC50 cytotoxicity in experiment [6] and in experiment [7] was more than 10 µM each time.

Turning to `O=C(CCCCCCC(=O)Nc1ccccc1)NO` [Vorinostat], the drug sensitivity score is 3.5 in experiment [1], 0 in experiment [4] and 2.2 in experiment [5]. The same compound returned an EC50 viability in experiment [3] of 3.55 µM. The values for the TC50 cytotoxicity in experiment [6] and in experiment [7] were more than 10 µM and 2.24 µM, respectively.

For the compound `Nc1ncnc2c1c(COc1cccc(Cl)c1)nn2C1CCOCC1`, the drug sensitivity score was determined as 0.6 in experiment [1], 0 in experiment [4] and 0 in experiment [5]. In experiment [3], this compound showed an EC50 viability of more than 10 µM. The TC50 cytotoxicity in experiment [6] and in experiment [7] was more than 10 µM each time.

Regarding `O=C(c1cc(Cc2n[nH]c(=O)c3ccccc23)ccc1F)N1CCN(C(=O)C2CC2)CC1` [Olaparib], the drug sensitivity score was found to be 2.6 in experiment [1], 0 in experiment [4] and 0 in experiment [5]. In experiment [3], this compound came in with an EC50 viability of 1.4 µM. Also, the TC50 cytotoxicity in experiment [6] and in experiment [7] was more than 10 µM each time.

For `Nc1cc(COc2c(Cl)cc(C[C@H](N)C(=O)O)cc2Cl)c2oc(-c3ccccc3)nc2c1` [JPH203], the drug sensitivity score worked out at 5.3 in experiment [1], 4.2 in experiment [2], 0 in experiment [4] and 0 in experiment [5]. Also, the EC50 viability in experiment [8] was more than 5 µM. Besides, the TC50 cytotoxicity in experiment [6] and in experiment [7] was more than 5 µM each time.

With `CC(C)(O)CC(=O)NCCn1ccc2ncnc(Nc3ccc(Oc4cccc(C(F)(F)F)c4)c(Cl)c3)c21` [TAK-285], the drug sensitivity score turned out to be 3.7 in experiment [1], 5.4 in experiment [2], 0 in experiment [4] and 0 in experiment [5]. This compound displayed an EC50 viability in experiment [8] of 0.0595 µM. Besides, the TC50 cytotoxicity in experiment [6] and in experiment [7] was more than 2.5 µM each time.

Turning to `C#Cc1cccc(Nc2ncnc3cc4c(cc23)OCCOCCOCCO4)c1` [Icotinib], the drug sensitivity score in experiment [1] is 0.7; in experiment [2], 2.5; in experiment [4], 0; in experiment [5] it was 0. The compound also displayed an EC50 viability in experiment [8] of 1.54 µM. For the same compound, the TC50 cytotoxicity in experiment [6] and in experiment [7] was more than 10 µM each time.

Turning to `CC/C(=C(\c1ccc(O)cc1)c1ccc(OCCN(C)C)cc1)c1ccccc1` [4-hydroxytamoxifen], the drug sensitivity score in experiment [1] is 10.6; in experiment [2], 5; in experiment [4], 0; in experiment [5], 0. Further, the EC50 viability in experiment [3] turned out to be 0.0088 µM. Moreover, the TC50 cytotoxicity in experiment [6] and in experiment [7] was more than 10 µM in each case.

With `O=c1[nH]c(C2CCCN2)nc2c1oc1ccc(Cl)cc12` (stereo unspecified), the drug sensitivity score in experiment [1] came out at 0.7; in experiment [2] it was 0.9; in experiment [4], 0; in experiment [5], 0. This compound also had an EC50 viability in experiment [8] of more than 10 µM. In addition, the TC50 cytotoxicity in experiment [6] and in experiment [7] was more than 10 µM in each case.

As to `CC(C)Cn1cnc2c(N)nc3ccccc3c21` [Imiquimod], the drug sensitivity score in experiment [1] stood at 3.9; in experiment [4] it was 0; in experiment [5] it was 0. Further, the EC50 viability in experiment [3] stood at 0.0443 µM. The TC50 cytotoxicity in experiment [6] and in experiment [7] was more than 2.5 µM throughout.

With `COc1cc2c(NC3CCN(C(C)C)CC3)nc(C3CCCCC3)nc2cc1OCCCN1CCCC1` [UNC0638], the drug sensitivity score in experiment [1] is 0.2; in experiment [2] it was 2.4; in experiment [4] it was 0; in experiment [5], 0. Further, in experiment [3], the EC50 viability was more than 10 µM. Also, the TC50 cytotoxicity in experiment [6] and in experiment [7] was more than 10 µM in each case.

For the compound `C[C@H](Nc1ncnc2[nH]cnc12)c1cc2ccc(F)cc2nc1-c1ccccn1` [AMG319], the results for the drug sensitivity score in experiment [1], in experiment [4] and in experiment [5] were 1.6, 0 and 0, respectively. Moreover, the EC50 viability in experiment [3] was more than 1 µM. In addition, the TC50 cytotoxicity in experiment [6] and in experiment [7] was more than 1 µM in each case.
